# Measured values as given in patent publication US8664257B2, “Oxygen-substituted 3-heteroaroylamino-propionic acid derivatives and their use as pharmaceuticals” (Sanofi, priority 2010, dated 2014).
# Molecular target: T1, Recombinant human cathepsin A (Homo sapiens, UniProt P10619)
# T1 construct: Recombinant human cathepsin A (residues 29-480, with a C-terminal 10-His tag); 10-His (C); purchased R&D Systems 1049-SE
# T1 sequence (P10619 29-312 limits assumed): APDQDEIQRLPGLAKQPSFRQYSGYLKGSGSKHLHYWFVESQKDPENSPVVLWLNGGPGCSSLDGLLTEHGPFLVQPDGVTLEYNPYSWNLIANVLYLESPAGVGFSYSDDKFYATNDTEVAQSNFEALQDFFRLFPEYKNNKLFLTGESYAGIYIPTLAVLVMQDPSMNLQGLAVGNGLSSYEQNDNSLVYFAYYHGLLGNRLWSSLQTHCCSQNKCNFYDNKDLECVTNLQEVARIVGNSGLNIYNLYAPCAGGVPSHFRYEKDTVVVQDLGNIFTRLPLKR
# T1 sequence (P10619 327-480 limits assumed): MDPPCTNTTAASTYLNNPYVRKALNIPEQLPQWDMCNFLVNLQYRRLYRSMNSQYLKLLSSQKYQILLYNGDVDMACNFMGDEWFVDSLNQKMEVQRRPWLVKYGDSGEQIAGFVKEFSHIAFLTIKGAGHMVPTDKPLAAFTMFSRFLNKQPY
# Assay: Cathepsin A inhibitory activity
# Assay type: biochemical
# Conditions: read-out: Activity (2): Cathepsin A inhibitory activity (IC50 class)
# Method in brief: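 Read-out was microfluidic separation of cleaved vs. uncleaved Bodipy FL-bradykinin (2 μM), giving turnover, % inhibition and IC50. Compound and 833 ng/ml enzyme met for 15 min RT in pH 5.5 MES/DTT before substrate (15 min RT). The 29-480 His-tagged human enzyme was first activated by cathepsin L, then E-64 (10 μM).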
row,Compound,IC50
1,O=C(O)C[C@H](NC(=O)c1cc(OCC2CC2)n(-c2ccccc2F)n1)c1cccc(Cl)c1Cl [Example 702],< 100 nM
2,Cc1cccc(C(CC(=O)O)NC(=O)c2cc(OCC3CC3)n(-c3ccccc3F)n2)c1C (stereo not drawn) [Example 703],< 100 nM
3,O=C(O)CC(NC(=O)c1cc(OCC2CC2)n(-c2ccccc2F)n1)c1cc(Cl)ccc1Cl (stereo not drawn) [Example 704],< 100 nM
4,COc1ccc(C(CC(=O)O)NC(=O)c2cc(OCC3CC3)n(-c3ccccc3F)n2)c(Cl)c1 (stereo not drawn) [Example 705],< 100 nM
5,CCOc1cc(C(=O)NC(CC(=O)O)c2cccc(F)c2C)nn1-c1ccccc1F (stereo not drawn) [Example 706],< 100 nM
6,CCOc1cc(C(=O)N[C@@H](CC(=O)O)c2ccccc2)nn1-c1ccccc1F [Example 707],100 to 1000 nM
7,CCOc1cc(C(=O)NC(CC(=O)O)c2ccc(C)cc2C)nn1-c1ccccc1F (stereo not drawn) [Example 708],< 100 nM
8,CCOc1cc(C(=O)N[C@@H](CC(=O)O)c2ccccc2OC)nn1-c1ccccc1F [Example 709],100 to 1000 nM
9,CCOc1cc(C(=O)N[C@@H](CC(=O)O)c2ccc(C#N)cc2)nn1-c1ccccc1F [Example 710],100 to 1000 nM
10,CCOc1cc(C(=O)N[C@@H](CC(=O)O)c2cccc(OC)c2)nn1-c1ccccc1F [Example 711],100 to 1000 nM
11,CCOc1cc(C(=O)N[C@@H](CC(=O)O)c2cccc(C)c2)nn1-c1ccccc1F [Example 712],< 100 nM
12,CCOc1cc(C(=O)N[C@@H](CC(=O)O)c2ccc(Cl)cc2)nn1-c1ccccc1F [Example 713],< 100 nM
13,CCOc1cc(C(=O)NC(CC(=O)O)c2ccc(OC)cc2C)nn1-c1ccccc1F (stereo not drawn) [Example 714],< 100 nM
14,CCOc1cc(C(=O)N[C@@H](CC(=O)O)c2ccc(C(F)(F)F)cc2)nn1-c1ccccc1F [Example 715],< 100 nM
15,CCOc1cc(C(=O)N[C@@H](CC(=O)O)c2ccc(C)cc2)nn1-c1ccccc1F [Example 716],< 100 nM
16,CCOc1cc(C(=O)N[C@@H](CC(=O)O)c2ccccc2Cl)nn1-c1ccccc1F [Example 717],< 100 nM
17,CCOc1cc(C(=O)NC(CC(=O)O)c2ccc(F)cc2C)nn1-c1ccccc1F (stereo not drawn) [Example 718],< 100 nM
18,CCOc1cc(C(=O)NC(CC(=O)O)c2ccc(F)cc2)nn1-c1ccccc1F (stereo not drawn) [Example 719],100 to 1000 nM
19,CCOc1cc(C(=O)N[C@@H](CC(=O)O)c2ccccc2F)nn1-c1ccccc1F [Example 720],< 100 nM
20,CCOc1cc(C(=O)N[C@@H](CC(=O)O)c2ccccc2C(F)(F)F)nn1-c1ccccc1F [Example 721],100 to 1000 nM
21,CCOc1cc(C(=O)N[C@@H](CC(=O)O)c2cccc(Cl)c2Cl)nn1-c1ccccc1F [Example 722],< 100 nM
22,CCOc1cc(C(=O)NC(CC(=O)O)c2cccc(C)c2C)nn1-c1ccccc1F (stereo not drawn) [Example 723],< 100 nM
23,CCOc1cc(C(=O)NC(CC(=O)O)c2ccc(OC)cc2Cl)nn1-c1ccccc1F (stereo not drawn) [Example 724],< 100 nM
24,CCOc1cc(C(=O)NC(CC(=O)O)c2cccc(F)c2C)nn1-c1ccccc1Cl (stereo not drawn) [Example 725],< 100 nM
25,CCOc1cc(C(=O)N[C@@H](CC(=O)O)c2ccccc2)nn1-c1ccccc1Cl [Example 726],100 to 1000 nM
26,CCOc1cc(C(=O)N[C@@H](CC(=O)O)c2ccccc2C)nn1-c1ccccc1Cl [Example 727],< 100 nM
27,CCOc1cc(C(=O)NC(CC(=O)O)c2ccc(C)cc2C)nn1-c1ccccc1Cl (stereo not drawn) [Example 728],< 100 nM
28,CCOc1cc(C(=O)N[C@@H](CC(=O)O)c2ccccc2OC)nn1-c1ccccc1Cl [Example 729],100 to 1000 nM

row,Compound,IC50
1,CCOc1cc(C(=O)N[C@@H](CC(=O)O)c2ccc(C#N)cc2)nn1-c1ccccc1Cl [Example 730],100 to 1000 nM
2,CCOc1cc(C(=O)N[C@@H](CC(=O)O)c2cccc(OC)c2)nn1-c1ccccc1Cl [Example 731],100 to 1000 nM
3,CCOc1cc(C(=O)N[C@@H](CC(=O)O)c2cccc(C)c2)nn1-c1ccccc1Cl [Example 732],< 100 nM
4,CCOc1cc(C(=O)N[C@@H](CC(=O)O)c2ccc(Cl)cc2)nn1-c1ccccc1Cl [Example 733],< 100 nM
5,CCOc1cc(C(=O)N[C@@H](CC(=O)O)c2ccc(C(F)(F)F)cc2)nn1-c1ccccc1Cl [Example 735],100 to 1000 nM
6,CCOc1cc(C(=O)N[C@@H](CC(=O)O)c2ccc(C)cc2)nn1-c1ccccc1Cl [Example 736],< 100 nM
7,CCOc1cc(C(=O)N[C@@H](CC(=O)O)c2ccccc2Cl)nn1-c1ccccc1Cl [Example 737],< 100 nM
8,CCOc1cc(C(=O)NC(CC(=O)O)c2ccc(F)cc2C)nn1-c1ccccc1Cl (stereo not drawn) [Example 738],< 100 nM
9,CCOc1cc(C(=O)NC(CC(=O)O)c2ccc(F)cc2)nn1-c1ccccc1Cl (stereo not drawn) [Example 739],100 to 1000 nM
10,CCOc1cc(C(=O)N[C@@H](CC(=O)O)c2ccccc2C(F)(F)F)nn1-c1ccccc1Cl [Example 741],100 to 1000 nM
11,CCOc1cc(C(=O)N[C@@H](CC(=O)O)c2cccc(Cl)c2Cl)nn1-c1ccccc1Cl [Example 742],< 100 nM
12,CCOc1cc(C(=O)NC(CC(=O)O)c2cccc(C)c2C)nn1-c1ccccc1Cl (stereo not drawn) [Example 743],< 100 nM
13,"Cc1ccccc1[C@H](CC(=O)O)NC(=O)c1cc(OCC(O)C(C)(C)C)n(-c2ccccc2F)n1 (stereo partly drawn) [Example 744, (S)-3-{[1-(2-Fluoro-phenyl)-5-(2-hydroxy-3,3-dimethyl-butoxy)-1H-pyrazole-3-carbonyl]-amino}-3-o-tolyl-propionic acid]",< 100 nM
14,"Cc1ccccc1[C@H](CC(=O)O)NC(=O)c1cc(OC[C@@H](O)C(C)(C)C)n(-c2ccccc2F)n1 [Example 746, (S)-3-{[1-(2-Fluoro-phenyl)-5-((S)-2-hydroxy-3,3-dimethyl-butoxy)-1H-pyrazole-3-carbonyl]-amino}-3-o-tolyl-propionic acid]",< 100 nM
15,Cc1ccccc1[C@H](CC(=O)O)NC(=O)c1cc(OCC(C)O)n(-c2ccccc2F)n1 (stereo partly drawn) [Example 749],< 100 nM
16,CCC(C)(O)COc1cc(C(=O)N[C@@H](CC(=O)O)c2ccccc2C)nn1-c1ccccc1F (stereo partly drawn) [Example 750],< 100 nM
17,"CC(C)(O)COc1cc(C(=O)N[C@@H](CC(=O)O)c2ccc(Cl)cc2Cl)nn1-c1ccccc1F [Example 751, (S)-3-(2,4-Dichloro-phenyl)-3-{[1-(2-fluoro-phenyl)-5-(2-hydroxy-2-methyl-propoxy)-1H-pyrazole-3-carbonyl]-amino}-propionic acid]",< 100 nM
18,Cc1ccccc1[C@H](CC(=O)O)NC(=O)c1cc(OCC(C)(C)O)n(-c2ccccc2F)n1 [Example 752],< 100 nM
19,"CC(C)(C)[C@@H](O)COc1cc(C(=O)N[C@@H](CC(=O)O)c2ccc(Cl)cc2Cl)nn1-c1ccccc1F [Example 753, (S)-3-(2,4-Dichloro-phenyl)-3-{[1-(2-fluoro-phenyl)-5-((R)-2-hydroxy-3,3-dimethyl-butoxy)-1H-pyrazole-3-carbonyl]-amino}-propionic acid]",< 100 nM
20,"CC(C)(C)[C@H](O)COc1cc(C(=O)N[C@@H](CC(=O)O)c2ccc(Cl)cc2Cl)nn1-c1ccccc1F [Example 754, (S)-3-(2,4-Dichloro-phenyl)-3-{[1-(2-fluoro-phenyl)-5-((S)-2-hydroxy-3,3-dimethyl-butoxy)-1H-pyrazole-3-carbonyl]-amino}-propionic acid]",< 100 nM
21,CCC(O)COc1cc(C(=O)N[C@@H](CC(=O)O)c2ccccc2C)nn1-c1ccccc1F (stereo partly drawn) [Example 755],< 100 nM
22,CCC(O)(CC)COc1cc(C(=O)N[C@@H](CC(=O)O)c2ccccc2C)nn1-c1ccccc1F [Example 756],< 100 nM
23,"Cc1ccccc1[C@H](CC(=O)O)NC(=O)c1cc(OCC(C)(O)C2CC2)n(-c2ccccc2F)n1 (stereo partly drawn) [Example 757, (S)-3-{[5-(2-Cyclopropyl-2-hydroxy-propoxy)-1-(2-fluoro-phenyl)-1H-pyrazole-3-carbonyl]-amino}-3-o-tolyl-propionic acid]",< 100 nM
24,"CCC(O)(CC)COc1cc(C(=O)N[C@@H](CC(=O)O)c2ccc(Cl)cc2Cl)nn1-c1ccccc1F [Example 762, (S)-3-(2,4-Dichloro-phenyl)-3-{[5-(2-ethyl-2-hydroxy-butoxy)-1-(2-fluoro-phenyl)-1H-pyrazole-3-carbonyl]-amino}-propionic acid]",< 100 nM
25,"Cc1ccccc1[C@H](CC(=O)O)NC(=O)c1cc(OC[C@](C)(O)C(C)C)n(-c2ccccc2F)n1 [Example 765, (S)-3-{[1-(2-Fluoro-phenyl)-5-((R)-2-hydroxy-2,3-dimethyl-butoxy)-1H-pyrazole-3-carbonyl]-amino}-3-o-tolyl-propionic acid]",< 100 nM
26,"Cc1ccc([C@H](CC(=O)O)NC(=O)c2cc(OC[C@@](C)(O)C(C)C)n(-c3ccccc3F)n2)cc1 [Example 766, (S)-3-{[1-(2-Fluoro-phenyl)-5-((S)-2-hydroxy-2,3-dimethyl-butoxy)-1H-pyrazole-3-carbonyl]-amino}-3-p-tolyl-propionic acid]",< 100 nM
27,CC(C)[C@@](C)(O)COc1cc(C(=O)N[C@@H](CC(=O)O)c2cccc(Cl)c2)nn1-c1ccccc1F [Example 767],< 100 nM

# Same assay, conditions: recombinant human cathepsin A 833 ng/ml, Bodipy FL-labeled bradykinin 2 μM, pH 5.5; read-out: CATH-A IC50
row,Compound,IC50
1,"CC(C)(C)[C@@H](O)COc1cc(C(=O)N[C@@H](CC(=O)O)c2ccc(Cl)cc2Cl)nn1-c1ccccc1F [Example 753, (S)-3-(2,4-Dichloro-phenyl)-3-{[1-(2-fluoro-phenyl)-5-((R)-2-hydroxy-3,3-dimethyl-butoxy)-1H-pyrazole-3-carbonyl]-amino}-propionic acid]",345 nM
2,"Cc1ccc([C@H](CC(=O)O)NC(=O)c2cc(OC[C@@](C)(O)C(C)C)n(-c3ccccc3F)n2)cc1 [Example 766, (S)-3-{[1-(2-Fluoro-phenyl)-5-((S)-2-hydroxy-2,3-dimethyl-butoxy)-1H-pyrazole-3-carbonyl]-amino}-3-p-tolyl-propionic acid]",0.692 nM
